In patent publication US20260027121A1, “LIGAND ACTING ON ADENOSINE RECEPTORS AND COMPOSITION COMPRISING SAME FOR PREVENTION, ALLEVIATION, OR TREATMENT OF OBESITYS” (FUTURE MEDICINE CO., LTD., priority 2022, published 2026):

Columns and labels:
A3AR = molecular target: T1, A3AR (Homo sapiens, UniProt P0DMS8); experiment: cAMP assay at A3AR using full agonist Cl-IB-MECA; type: cell-based; conditions: FIG. 1C
T1 sequence (P0DMS8 1-318): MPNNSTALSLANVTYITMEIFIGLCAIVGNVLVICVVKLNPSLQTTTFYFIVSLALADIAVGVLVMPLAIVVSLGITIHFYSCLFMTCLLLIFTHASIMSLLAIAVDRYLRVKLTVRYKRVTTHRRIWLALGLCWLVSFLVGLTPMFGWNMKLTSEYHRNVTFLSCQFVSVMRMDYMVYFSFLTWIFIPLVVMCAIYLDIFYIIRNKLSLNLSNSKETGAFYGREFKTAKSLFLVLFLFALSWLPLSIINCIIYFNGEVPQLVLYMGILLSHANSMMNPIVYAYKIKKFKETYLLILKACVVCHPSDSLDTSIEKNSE

HFD-fed mice [1] = experiment: Immunoblot of BAT and iWAT of treated obese mice; type: in vivo, mouse; conditions: 1 mg kg-1/day, 10 days
Description: Mice fed a normal chow diet (NCD) and a high-fat diet (HFD) were treated with LJ-4378 (LJ, 1 mg kg-1/day) for 10 days. (A) Immunoblot analysis of BAT (n=6, mean±SEM, ** p<0.01, **** p<0.0001). (B) Immunoblot analysis in iWAT. Tubulin was a loading control. (n=6, mean±SEM, * p<0.05, *** p<0.001, **** p<0.0001).
(§1) For a diet-induced obesity model, mice were fed a high-fat diet (HFD)(Research Diets, D12492, protein: 20% kcal, carbohydrate: 20% kcal, and fat: 60% kcal) for 8 weeks. Then, LJ-4378 (1 mg kg-1) was injected into the mice once daily for 10 days.
In the case of Western blots, the primary antibodies used for Western blots are summarized in [Table 2] above. An anti-rabbit horseradish peroxidase antibody (1:3000, Thermo Fisher, 31460) and an anti-mouse horseradish peroxidase antibody (1:3000, Jackson, 115-035-174) were used as secondary antibodies. All antibodies were diluted in a blocking buffer (5% skimmed milk or 5% bovine serum albumin in TBST). Western blot images were acquired using a Fusion Solo chemiluminescence imaging system (Vilber Lourmat) and analyzed with Evolution Capt software (version 17.03). NIH ImageJ software was used for quantification.

brown adipocytes = experiment: Cytotoxicity / cell viability (EZ-CYTOX); type: cell-based, mouse; conditions: 24 hours
Description: Adipocyte precursor cells capable of differentiating into brown adipocytes were isolated from mouse brown adipose tissue. Cells were cultured in Dulbecco's modified Eagle's medium (Welgene, LM001-07) containing 10% fetal bovine serum (FBS, Gibco, 16000044) and 1% Penicillin Streptomycin (Welgene, LS202-02) at 37° C. in a humidified atmosphere with 5% CO2. When the cells reached about 100% confluency, the cells were exposed to a differentiation medium supplemented with 2.5 mM isobutyl methylxanthine (IBMX, Cayman, I5879), 0.125 mM indomethacin (Cayman, 70270), 1 μM dexamethasone (Cayman), 1 μg/mL insulin (Sigma, I9278), and 1 nM triiodothyronine (T3, Cayman, 6028) for 3 days for adipogenesis. Then, the cells were maintained in a growth medium containing 1 μg/mL insulin and 1 nM triiodothyronine (T3) for 3 days.
LJ-4378 is a dual-acting ligand with A2AAR agonist and A3AR antagonist activity. Cell viability was evaluated according to the manufacturer's instructions using EZ-CYTOX (DoGEN, EZ-3000). Absorbance was measured at 450 nm using a microplate reader (Thermo MULTISKAN GO, 8816-2015).

HFD-fed mice [2] = experiment: Diet-induced obesity model (body weight, body composition, tissue weight, H&E); type: in vivo, mouse; conditions: 1 mg kg-1 once daily, 10 days
Description: as §1
Indirect calorimetry was performed using a PhenoMaster (TSE Systems) to measure expenditure (EE), VO2, VCO2, activity, and food intake. Body components were measured by nuclear magnetic resonance scanning Echo MRI-700 (Echo Medical Systems).
Mice fed a HFD were used as a diet-induced obesity model. Body weight changes were monitored during treatment, and fat and body components of the mice were measured after treatment.
For histological analysis, adipose tissue was fixed in 10% formalin and then embedded in a paraffin block. Paraffin sections were stained with hematoxylin/eosin (H&E).

KB value at A3AR (A3AR): nM level
SMILES: CCCCC#Cc1nc(N)c2ncn([C@@H]3SC[C@@H](O)[C@H]3O)c2n1 [LJ-4378, 2-(6-amino-2-(hex-1-yn-1-yl)-9H-purin-9-yl)tetrahydrothiophene-3,4-diol]
COXIV upregulation in BAT (HFD-fed mice [1]): 5.91±0.23 fold
COXIV upregulation in iWAT (HFD-fed mice [1]): 1.24±0.04 fold
P-CREB upregulation in BAT (HFD-fed mice [1]): 1.54±0.03 fold
P-CREB upregulation in iWAT (HFD-fed mice [1]): 3.86±0.12 fold
P-HSL upregulation in BAT (HFD-fed mice [1]): 2.31±0.18 fold
P-HSL upregulation in iWAT (HFD-fed mice [1]): 1.72±0.04 fold
UCP1 upregulation in BAT (HFD-fed mice [1]): 1.33±0.06 fold
UCP1 upregulation in iWAT (HFD-fed mice [1]): 3.34±0.36 fold
concentrations with no effect on cell viability (brown adipocytes): less than 100 μM
reduction in body weight (HFD-fed mice [2]): 8.24%
reduction in fat mass (HFD-fed mice [2]): 24.18%
reduction in weight of gWAT (HFD-fed mice [2]): 18.6%
reduction in weight of iWAT (HFD-fed mice [2]): 30.1%
